Converted amounts (≈) assume the structure as drawn.
What was measured:
Test in all cases: Bacteriostatic activity by the method of streaks in gelose media, minimum inhibitory concentration
Type in all cases: cell-based
[1] = test system: Staphylococcus Aureus; conditions: streaks from 24 hour old culture, gram + ve, read-out: Minimal inhibitory concentration Staphylococcus Aureus
Procedure: (§1) The bacteriostatic activity of the phenols according to the invention has been evaluated by the method of streaks in gelose media. This method comprises making increasing dilutions of the product to be tested, in nutritive geloses poured into a Petri dish.
(§2) The various bacteria to be studied are then introduced onto the geloses in parallel streaks by means of a platinum loop which has been immersed in a 24 hour old culture of each bacteria.
(§3) The activity of these compounds has been studied vis a vis two gram + ve bacteria, namely Staphylococcus Aureus and Streptococcus Pyrogenes.

[2] = test system: Streptococcus Pyrogenes; conditions: streaks from 24 hour old culture, gram + ve, read-out: Minimal inhibitory concentration Streptococcus Pyrogenes
Procedure: as §1, §2, §3

[3] = test system: Escherichia Coli; conditions: streaks from 24 hour old culture, read-out: Minimal inhibitory concentration Escherichia Coli
Procedure: as §1, §2

Compound | MIC [1] [µg/mL] | MIC [2] [µg/mL] | MIC [3] [µg/mL]
Cc1cc(O)c(C2CC3CCC2(C)C3(C)C)cc1[N+](=O)[O-] (centres unmarked) [Example 1, 2-isobornyl-4-nitro-5-methylphenol] | 1 | 7.5 | –
Cc1cc(O)c(C2CC3CCC2(C)C3(C)C)cc1Br (centres unmarked) [Example 2, 2-isobornyl-4-bromo-5-methyl-phenol] | 5 | 15 | –
CC1(C)C2CCC1(C)C(c1cc([N+](=O)[O-])ccc1O)C2 (centres unmarked) [Example 3, 2-isobornyl-4-nitrophenol] | 1 | 5 | –
CC1(C)C2CCC1(C)C(c1cc(Br)ccc1O)C2 (centres unmarked) [Example 4, 2-isobornyl-4-bromophenol] | 2 | 30 | –
O=[N+]([O-])c1ccc(O)c(C2CC3CCC2C3)c1 (stereo not drawn) [Example 5, 2-exo-norbornyl-4-nitrophenol] | 5 | 10 | –
CC1C2CC(CC2c2cc(Br)ccc2O)C1(C)C (centres unmarked) [Example 6, 2-isocamphyl-4-bromophenol] | 2.5 | 5 | –
Cc1cc(O)c(C2CC3CCC2(C)C3(C)C)cc1Cl (centres unmarked) [Example 7, 2-isobornyl-4-chloro-5-methylphenol] | 2.5 | 5 | –
Oc1ccc(Br)cc1C1CC2CCC1C2 (stereo not drawn) [Example 8, 2-exo-norbornyl-4-bromophenol] | 7.5 | 20 | 7.5 (≈ 28.1 µM)
Cc1cc(O)c(C2CC3CCC2C3)cc1Br (stereo not drawn) [Example 9, 2-exo-norbornyl-4-bromo-5-methylphenol] | 5 | – | 20 (≈ 71.1 µM)
Oc1ccc(Cl)cc1C1CC2CCC1C2 (stereo not drawn) [Example 10, 2-exo-norbornyl-4-chlorophenol] | 5 | – | 10 (≈ 44.9 µM)
CC1(C)C2CCC1(C)C(c1cc(Cl)ccc1O)C2 (centres unmarked) [Example 11, 2-isobornyl-4-chlorophenol] | 2.5 | 10 | –
COc1cc(C)c(O)cc1C1CC2CCC1(C)C2(C)C (centres unmarked) [Example 12, 2-methyl-4-methoxy-5-isobornyl phenol] | 5 | – | –
Cc1ccc(O)c(C2CC3CC2C(C)C3(C)C)c1 (centres unmarked) [Example 13, 2-isocamphyl-4-methylphenol] | 5 | 20 | –
COc1ccc(O)cc1C1CC2CCC1(C)C2(C)C (centres unmarked) [Example 14, 3-isobornyl-4-methoxyphenol] | 5 | 10 | –
Cc1cc(O)c(C2CC3CCC2(C)C3(C)C)cc1C#N (centres unmarked) [Example 15, 2-isobornyl-4-cyano-5-methylphenol] | 5 | 10 | –
CC1(C)C2CCC1(C)C(c1cc(C#N)ccc1O)C2 (centres unmarked) [Example 16, 2-isobornyl-4-cyano phenol] | 5 | 7.5 | –
